Some results are limits rather than exact numbers.

The target of the experiment is T1, Full-length human PRMT3 (Homo sapiens, UniProt O60678).
T1 construct: GST-tagged PRMT3; made in house; host or cells: E. coli BL21(DE3) Gold (pGEX-KG)
T1 sequence (O60678 with tags, fused parts or gaps): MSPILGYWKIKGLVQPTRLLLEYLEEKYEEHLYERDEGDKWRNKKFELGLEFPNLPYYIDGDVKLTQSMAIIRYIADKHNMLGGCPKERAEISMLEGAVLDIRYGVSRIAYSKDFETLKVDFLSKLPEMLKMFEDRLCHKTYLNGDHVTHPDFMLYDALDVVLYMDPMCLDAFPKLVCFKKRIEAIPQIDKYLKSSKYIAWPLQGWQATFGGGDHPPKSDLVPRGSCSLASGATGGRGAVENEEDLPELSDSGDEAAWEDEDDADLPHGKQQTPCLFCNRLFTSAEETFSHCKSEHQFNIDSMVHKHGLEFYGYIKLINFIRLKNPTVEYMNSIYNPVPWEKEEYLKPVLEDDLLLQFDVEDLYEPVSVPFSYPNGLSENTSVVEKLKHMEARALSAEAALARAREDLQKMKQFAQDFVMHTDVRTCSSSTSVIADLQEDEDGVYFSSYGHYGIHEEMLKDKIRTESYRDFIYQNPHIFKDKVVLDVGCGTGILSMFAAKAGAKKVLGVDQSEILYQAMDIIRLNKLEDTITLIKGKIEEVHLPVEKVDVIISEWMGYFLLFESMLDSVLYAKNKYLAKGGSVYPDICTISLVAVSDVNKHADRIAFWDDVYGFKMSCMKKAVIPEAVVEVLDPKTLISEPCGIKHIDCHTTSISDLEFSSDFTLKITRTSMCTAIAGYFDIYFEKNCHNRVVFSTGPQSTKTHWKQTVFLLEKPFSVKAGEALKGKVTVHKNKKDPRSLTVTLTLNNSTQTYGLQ
The experiment can be described thus: PRMT3 biochemical assay (3H-SAM Flashplate, peptide substrate). The text has this:
General Materials. S-adenosylmethionine (SAM), S-adenosylhomocysteine (SAH), bicine, Tween20, dimethylsulfoxide (DMSO), bovine skin gelatin (BSG),), isopropyl-β-D-thiogalactopyranoside (IPTG), and Tris(2-carboxyethyl)phosphine hydrochloride solution (TCEP) were purchased from Sigma-Aldrich at the highest level of purity possible. ^3H-SAM was purchase from American Radiolabeled Chemicals with a specific activity of 80 Ci/mmol. 384-well streptavidin Flashplates were purchased from PerkinElmer.
Substrates. Peptide containing the classic RMT substrate motif was synthesized with an N-terminal linker-affinity tag motif and a C-terminal amide cap by 21st Century Biochemicals. The peptide was purified by high-performance liquid chromatography (HPLC) to greater than 95% purity and confirmed by liquid chromatography mass spectrometry (LC-MS). The sequence was Biot-Ahx-[…]-amide (SEQ ID NO.:11).
Molecular Biology: : Full-length human PRMT3 (NM_005788.3) isoform 1 transcript clone was amplified from an HEK 293 cDNA library and subcloned into pGEX-KG (GE Life Sciences). The resulting construct encodes an N-terminal GST tag and a thrombin cleavage sequence ([…] […] […] […]) (SEQ ID NO.:12) fused directly to Cys 2 of PRMT3.
Protein Expression. E. coli (BL21(DE3) Gold, Stratagene) made competent by the CaCl2 method were transformed with the PRMT3 construct and ampicillin selection. Protein over-expression was accomplished by growing the PRMT3 expressing E. coli clone and inducing expression with 0.3 mM IPTG at 16° C. The culture was grown for 12 hours, harvested by centrifugation, and stored at −80° C. for purification.
Protein Purification. […] GST-tagged PRMT3 eluted with 25-400 mM phosphate in buffer C. Protein was concentrated and buffer was exchanged to 20 mM Tris, 150 mM NaCl, 5% glycerol, 5 mM β-mercaptoethanol, pH7.8 by ultrafiltration. The purity of recovered protein was 70%.
General Procedure for PRMT3 Enzyme Assays on Peptide Substrates. The assays were all performed in a buffer consisting of 20 mM Bicine (pH=7.6), 1 mM TCEP, 0.005% BSG, and 0.002% Tween 20, prepared on the day of use. Compounds in 100% DMSO (1 ul) were spotted into a polypropylene 384-well V-bottom plates (Greiner) using a Platemate Plus outfitted with a 384-channel head (Thermo Scientific). DMSO (1 ul) was added to Columns 11, 12, 23, 24, rows A-H for the maximum signal control and 1 ul of SAH, a known product and inhibitor of PRMT3, was added to columns 11, 12, 23, 24, rows I-P for the minimum signal control. A cocktail (40 ul) containing the PRMT3 enzyme was added by Multidrop Combi (Thermo-Fisher). The compounds were allowed to incubate with PRMT3 for 30 min at room temperature, then a cocktail (10 ul) containing SAM and peptide was added to initiate the reaction (final volume=51 ul). The final concentrations of the components were as follows: PRMT3 was 0.5 nM, ^3H-SAM was 100 nM, non-radiolabeled SAM was 1.8 uM, peptide was 330 nM, SAH in the minimum signal control wells was 1 mM, and the DMSO concentration was 2%. The assays were stopped by the addition of potassium chloride (10 ul) to a final concentration of 100 mM. 50 ul of the reaction in the 384-well polypropylene plate was then transferred to a 384-well Flashplate and the biotinylated peptides were allowed to bind to the streptavidin surface for at least 1 hour before being washed once with 0.1% Tween20 in a Biotek ELx405 plate washer. The plates were then read in a PerkinElmer TopCount plate reader to measure the quantity of ^3H-labeled peptide bound to the Flashplate surface, measured as disintegrations per minute (dpm) or alternatively, referred to as counts per minute (cpm).
Where dpm=disintegrations per minute, cmpd=signal in assay well, and min and max are the respective minimum and maximum signal controls.
Where top and bottom are the normally allowed to float, but may be fixed at 100 or 0 respectively in a 3-parameter fit. […]
In turn, `COCCn1cc(CN(C)CCN)c(-c2ccc(F)cc2)n1` [Compound 5] came in with a half-maximal inhibitory concentration (IC50) above 10 µM.

The compound `COCCn1ncc(CN(C)CCN)c1-c1ccc(F)cc1` [Compound 6] returned an IC50 above 10 µM.

`CCn1ncc(CN(C)CCNC)c1-c1ccc(F)cc1` [Compound 7] showed a 50% inhibitory concentration (IC50) above 10 µM.

Take `CCn1cc(CN(C)CCNC)c(-c2ccc(F)cc2)n1` [Compound 8]: the IC50 is above 10 µM.

The compound `CN(CCN)Cc1c[nH]nc1-c1ccc(Cl)cc1` [Compound 95] came in with an IC50 of 1.01 to 3 µM.

The compound `CN(CCN)Cc1c[nH]nc1-c1ccc(OCC(F)(F)F)cc1` [Compound 96] gave an IC50 of 3.01 to 10 µM.

Regarding `CC(C)Oc1ccc(-c2n[nH]cc2CN(C)CCN)cc1F` [Compound 97], the IC50 was 3.01 to 10 µM.

As for `CN(CCN)Cc1c[nH]nc1-c1ccc(C2CCOCC2)cc1` [Compound 98], the IC50 was 0.101 to 1 µM.

`CN(CCN)Cc1c[nH]nc1-c1ccc(F)cc1F` [Compound 99] showed an IC50 above 10 µM.

As to `CN(CCN)Cc1n[nH]cc1-c1ccc(C#N)cc1` [Compound 100], the IC50 fell in the range of 3.01 to 10 µM.

In turn, `CC(C)c1ccc(-c2c[nH]nc2CN(C)CCN)cc1` [Compound 101] yielded an IC50 above 10 µM.

In turn, `CN(CCN)Cc1n[nH]cc1-c1ccc(Cl)cc1` [Compound 102] returned an IC50 of 3.01 to 10 µM.

As for `CN(CCN)Cc1n[nH]cc1-c1ccc(C(F)(F)F)cc1` [Compound 103], the IC50 was above 10 µM.

For `CN(CCN)Cc1n[nH]cc1-c1ccc(C2CC2)cc1` [Compound 104], the IC50 is above 10 µM.

Regarding `CN(CCN)Cc1n[nH]cc1-c1ccc(OC(F)(F)F)cc1` [Compound 105], the IC50 lay within 3.01 to 10 µM.

In turn, `CN(CCN)Cc1c[nH]nc1-c1cc(F)ccc1Cl` [Compound 106] registered a half-maximal inhibitory concentration (IC50) above 10 µM.

In the case of `COc1ccc(-c2n[nH]cc2CN(C)CCN)c(F)c1` [Compound 107], the IC50 lay within 3.01 to 10 µM.

`Cc1ccc(-c2n[nH]cc2CN(C)CCN)c(F)c1` [Compound 108] displayed an IC50 of 3.01 to 10 µM.

`COc1ccccc1-c1n[nH]cc1CN(C)CCN` [Compound 109] displayed an IC50 above 10 µM.

Turning to `Cc1cc(C#N)ccc1-c1n[nH]cc1CN(C)CCN` [Compound 110], the 50% inhibitory concentration (IC50) fell in the range of 3.01 to 10 µM.

`CN(CCN)Cc1c[nH]nc1-c1cc(F)cc(F)c1` [Compound 111] gave a 50% inhibitory concentration (IC50) of 3.01 to 10 µM.

In the case of `CC(=O)c1cccc(-c2n[nH]cc2CN(C)CCN)c1` [Compound 112], the IC50 fell in the range of 3.01 to 10 µM.

`CN(CCN)Cc1cnn(CC(O)CO)c1-c1ccc(F)cc1` (stereo not shown) [Compound 113] had an IC50 above 10 µM.

As for `CN(CCN)Cc1c[nH]nc1-c1ccc(OC2CC2)cc1` [Compound 114], the IC50 lay in the range of 3.01 to 10 µM.

Compound `CC(O)c1ccc(-c2n[nH]cc2CN(C)CCN)cc1` (stereo not shown) [Compound 115] came in with an IC50 of 3.01 to 10 µM.

With `CN(CCN)Cc1c[nH]nc1-c1ccc(C2CC2)cc1` [Compound 116], the IC50 lay in the range of 1.01 to 3 µM.

The compound `CN(CCN)Cc1c[nH]nc1-c1ccc(C(F)(F)F)c(Cl)c1` [Compound 117] displayed an IC50 of 1.01 to 3 µM.

Regarding `CN(CCN)Cc1c[nH]nc1-c1ccc(Cl)c(F)c1` [Compound 118], the IC50 was in the range of 1.01 to 3 µM.

Consider `CN(CCN)Cc1n[nH]cc1-c1ccc(OC2CC2)cc1` [Compound 119], for which the 50% inhibitory concentration (IC50) lay within 3.01 to 10 µM.

Regarding `CN(CCN)Cc1c[nH]nc1-c1cc(F)cc(Cl)c1` [Compound 121], the IC50 is 1.01 to 3 µM.

`CN(CCN)Cc1c[nH]nc1-c1cccc(Cl)c1` [Compound 122] yielded a half-inhibitory concentration (IC50) of 3.01 to 10 µM.

`CN(CCN)Cc1c[nH]nc1-c1cccc(Cl)c1F` [Compound 123] had an IC50 of 3.01 to 10 µM.

For `CN(CCN)Cc1c[nH]nc1-c1ccc(F)c(Cl)c1` [Compound 124], the IC50 is 1.01 to 3 µM.

With `COc1ccc(-c2n[nH]cc2CN(C)CCN)cc1Cl` [Compound 125], the IC50 was in the range of 3.01 to 10 µM.

On to `Cc1ccc(-c2n[nH]cc2CN(C)CCN)cc1Cl` [Compound 126], for which the IC50 lay within 1.01 to 3 µM.

Turning to `COc1cc(Cl)cc(-c2n[nH]cc2CN(C)CCN)c1` [Compound 127], the IC50 is 3.01 to 10 µM.

The compound `CN(CCN)Cc1cn(CC2CCOCC2)nc1-c1ccc(F)cc1` [Compound 128] returned an IC50 above 10 µM.

`Cc1c(F)cccc1-c1n[nH]cc1CN(C)CCN` [Compound 129]: the IC50 lay in the range of 3.01 to 10 µM.

For `COc1cccc(-c2n[nH]cc2CN(C)CCN)c1` [Compound 130], the IC50 is 3.01 to 10 µM.

In turn, `Cc1cccc(-c2n[nH]cc2CN(C)CCN)c1` [Compound 131] returned an IC50 of 3.01 to 10 µM.

Take `CN(CCN)Cc1c[nH]nc1-c1ccc(Cl)cc1F` [Compound 132]: the IC50 was in the range of 3.01 to 10 µM.

In the case of `Cc1cc(Cl)ccc1-c1n[nH]cc1CN(C)CCN` [Compound 133], the IC50 lay in the range of 3.01 to 10 µM.

For `COc1ccc(-c2n[nH]cc2CN(C)CCN)cc1F` [Compound 134], the IC50 is 3.01 to 10 µM.

As for `CN(CCN)Cc1c[nH]nc1-c1ccc(C(F)(F)F)cc1Cl` [Compound 135], the IC50 was above 10 µM.

Compound `CCNC(=O)c1ccc(-c2n[nH]cc2CN(C)CCN)cc1` [Compound 136] showed a half-inhibitory concentration (IC50) above 10 µM.

As for `CN(CCN)Cc1c[nH]nc1-c1cc(Cl)cc(Cl)c1` [Compound 137], the IC50 was in the range of 3.01 to 10 µM.

The compound `CN(CCN)Cc1n[nH]cc1-c1ccc(OC(F)F)cc1` [Compound 138] registered an IC50 above 10 µM.

Consider `CN(CCN1CCCC1)Cc1c[nH]nc1-c1ccc(C#N)cc1` [Compound 139], for which the IC50 is above 10 µM.

`CN(CCN)Cc1c[nH]nc1-c1ccccc1C#N` [Compound 140] registered an IC50 of 3.01 to 10 µM.

Compound `CN(CCN)Cc1c[nH]nc1-c1ccc(C(F)(F)F)c(F)c1` [Compound 141] displayed an IC50 of 3.01 to 10 µM.

Consider `COc1cc(-c2n[nH]cc2CN(C)CCN)ccc1F` [Compound 142], for which the 50% inhibitory concentration (IC50) fell in the range of 3.01 to 10 µM.

Compound `CCN(CC)C(=O)c1ccc(-c2n[nH]cc2CN(C)CCN)cc1` [Compound 143] registered an IC50 of 3.01 to 10 µM.

In turn, `CC(C)Oc1ccc(-c2c[nH]nc2CN(C)CCN)cc1F` [Compound 144] showed an IC50 above 10 µM.

For the compound `CN(CCN)Cc1n[nH]cc1-c1ccc(C2CCOCC2)cc1` [Compound 145], the IC50 lay in the range of 3.01 to 10 µM.

`COc1ccc(-c2n[nH]cc2CN(C)CCN)c(Cl)c1` [Compound 146] returned an IC50 of 3.01 to 10 µM.

As for `CN(CCN)Cc1c[nH]nc1-c1cc(C#N)ccc1Cl` [Compound 147], the IC50 was above 10 µM.

Regarding `CN(CCN)Cc1c[nH]nc1-c1ccc(C(F)(F)F)cc1F` [Compound 148], the IC50 is above 10 µM.

In turn, `CN(CCN)Cc1c[nH]nc1-c1cccc(N(C)C)c1` [Compound 149] registered an IC50 of 3.01 to 10 µM.

`CCOC(=O)c1cccc(-c2n[nH]cc2CN(C)CCN)c1` [Compound 150] returned an IC50 above 10 µM.

Compound `COc1cc(F)ccc1-c1n[nH]cc1CN(C)CCN` [Compound 151] had an IC50 above 10 µM.

For the compound `Cc1cc(F)ccc1-c1n[nH]cc1CN(C)CCN` [Compound 152], the half-maximal inhibitory concentration (IC50) fell in the range of 3.01 to 10 µM.

As to `COc1ccc(-c2n[nH]cc2CN(C)CCN)cc1` [Compound 153], the IC50 was 3.01 to 10 µM.

Turning to `COc1ccc(-c2n[nH]cc2CN(C)CCN)c(C(F)(F)F)c1` [Compound 154], the IC50 was above 10 µM.

Compound `COc1ccc(-c2n[nH]cc2CN(C)CCN)c(C)c1` [Compound 155] showed an IC50 of 3.01 to 10 µM.

`CN(CCN)Cc1c[nH]nc1-c1cc(Cl)ccc1F` [Compound 156]: the IC50 was above 10 µM.

With `COc1ccc(Cl)cc1-c1n[nH]cc1CN(C)CCN` [Compound 157], the IC50 was above 10 µM.

With `Cc1ccc(C#N)cc1-c1n[nH]cc1CN(C)CCN` [Compound 158], the IC50 was above 10 µM.
